Columns and labels:
[1] = cited from earlier work
[2] = Metabolite profiling in plasma (LC-MS-TopCount); assay type: in vivo, human
Description: Plasma samples from six patients were pooled using two methods: (1) A Hamilton pool plasma (0–24 h) for metabolite profile determination was prepared by combining plasma aliquots of a volume proportional to the time interval used for calculating the AUC (AUC0-24h pool) for each patient and (2) four time-point pooling samples were obtained by equal volume pool at 1, 4, 8, and 24 h across six patients. In addition, plasma samples at 1, 8, and 24 h were selected from three patients (Patients 03, 08, and 09) for metabolite profiles analysis to check the individual differences between patients. Samples collected after 24 h post dose were not included in the pooling due to the low radioactivity at later time points. All plasma samples (pooled and from individuals) were extracted at least two times with acetonitrile. All supernatants were evaporated to dryness, and the dried residues were reconstituted in 20% acetonitrile in water containing 0.1% TFA. The sample recovery was obtained by comparing the radioactivity concentrations before and after extraction, and the mean recovery was about 70%.
Aliquots of the supernatants were injected into the HPLC, and the HPLC elutes were collected as fractions at intervals of 30 sec per well into LumaPlate-96 DeepWell microplates (PerkinElmer). Due to the low radioactivity in each plasma sample, metabolite profiles were obtained by TopCount (PerkinElmer) analysis of HPLC elutes. The fractions were dried at room temperature, and then analyzed by a TopCount NXT radiometric microplate reader (PerkinElmer) to obtain metabolite profiles. The supernatants of extracts were also analyzed using an LC-MS method to identify metabolites.
(§1) Metabolite profiling and identification were performed on an LC system (Agilent) coupled to an LTQ Orbitrap mass spectrometer (Thermo Electron, Waltham, MA, USA) in combination with offline TopCount (LC-MS-TopCount) or online Radiomatic 625TR (LC-MS-Radiomatic; PerkinElmer). Proposed structures of the metabolites were based on accurate mass (<5 ppm) and comparison of mass spectral data of parent compound rucaparib and metabolite standard M324. The Radiomatic 625TR flow detector, equipped with a 200 μL flow cell, was operated using scintillation cocktail (Ultima-Flo M) delivered at a flow rate of 1 mL/min. Chromatography was done using a Phenomenex (Torrance, CA, USA) Luna Phenyl-Hexyl column (250 × 2 mm, 5 μm, 100 Å) at ambient temperature during the sample analysis. The mobile phase was (A) 0.05% TFA in water and (B) 0.05% TFA in acetonitrile, with a 0.2 mL/min flow rate. The gradient was as follows: 5% B over 2.1 min, to 20% B in 1.0 min, to 35% B in 16.9 min, isocratic at 35% B for 5 min, to 95% B over 5 min, and reduced to 5% B over 1 min, with total run time 45 min.
(§2) The abundance of unchanged rucaparib and metabolites identified in plasma, urine, and feces was determined as a percentage of the TRA in the analyzed samples. Percentage of the administered dose of rucaparib and metabolites was calculated in urine and feces (formula A). The concentration of rucaparib and its metabolites in plasma (ng Eq h/mL) was calculated based on the specific activity, TRA, and percentage of peaks (formula B). The AUC0-24h value of rucaparib and its major metabolite M324 in plasma was calculated using both Hamilton method (formula C) and linear trapezoidal method (formula D). • (A) %Doseofmetabolite=TRAinurineorfeces(dpm)÷TRAinadministereddose(dpm)×%metabolitesinmatrix • (B) Metaboliteconcentrationsinplasma(ngEq/mL)=TRAinplasma(dpm/mL)specificactivity(ngEq/dpm)×%metabolitesinthematrix • (C) Hamiltonmethod:AUC0−24h(ngEqh/mL)=concentrationinHamilton(AUC0−24h)pooledplasma(ngEq/mL)×24(h) • (D) Lineartrapezoidalmethod:AUC0−24h(ngEqh/mL)=C1h/2×1h+C1h+C4h/2×(4h−1h)+C4h+C8h/2×(8h−4h)+C8h+C24h/2×(24h−8h)

[3] = Metabolite profiling in pooled feces (LC-MS-Radiomatic); assay type: in vivo, human; conditions: for % Dose in feces: pooled fecal homogenate, % of administered dose
Description: For each patient, homogenized feces samples from different collection intervals were pooled in proportion to their sample weight in order to obtain a pooled sample covering 90% of the TRA recovered in feces. Aliquots of the pooled fecal samples were extracted at least twice with acetonitrile. The obtained supernatant was evaporated. The dried residues were reconstituted in 40% DMSO in water to obtain maximum recovery. An aliquot of the supernatant was analyzed for TRA to determine extraction efficiency, and the mean recovery was ≈75%. Aliquots of the supernatants were injected into the HPLC coupled to UV and radioactive detectors to obtain metabolite profiles. The sample supernatants were also analyzed using LC-MS to identify metabolites.
as §1, §2

[4] = single oral 600 mg, versus fasted
[5] = 0-24 h pooled plasma, N = 6, mean ± SD

Compound: CNCc1ccc(-c2[nH]c3cc(F)cc4c3c2CCNC4=O)cc1 [Rucaparib, rucaparib]
- Accumulation at steady state ([1]; 600 mg BID): approximately four-fold
- Time of dosing to achieve steady state ([1]; 600 mg BID): 1 week
- Dose proportionality of plasma exposure ([1]; 40–500 mg QD and 240–840 mg BID): dose proportional
- Median tmax, QD dosing ([1]; 40–500 mg once daily, Study 10): 1.5 to 6.0 h
- Median tmax, BID dosing ([1]; 240–840 mg twice daily, Study 10): 1.5 to 4.0 h
- Apparent steady-state clearance, BID dosing ([1]; Study 10): 26.2 to 58.6 L/h
- Apparent steady-state clearance, QD dosing ([1]; Study 10): 26.7 to 47.5 L/h
- Increase of AUC by a high-fat meal [1, 4]: 38%
- Increase of Cmax by a high-fat meal [1, 4]: 20%
- t1/2 in a previous clinical trial ([1]; single oral dose, dose range 40–500 mg): 11 to 29.8 h
- % Peak (of plasma radioactivity), Hamilton (AUC0-24h) pooled plasma [2, 5]: 64.0 ± 13.7%
- Concentration, Hamilton (AUC0-24h) pooled plasma [2, 5]: 335 ± 120 ng Eq/mL
- % Peak (of plasma radioactivity), Hamilton (AUC0-24h) pooled plasma ([2]; 0-24 h pooled plasma, N = 6, mean ± SD, listed as rucaparib): 64.0% and ≈ 64%
- % Radioactive peaks in individual plasma, Patient 03, 1 h ([2]; Patient 03, 1 h): 75.0%
- % Radioactive peaks in individual plasma, Patient 03, 8 h ([2]; Patient 03, 8 h): 66.7%
- % Radioactive peaks in individual plasma, Patient 03, 24 h ([2]; Patient 03, 24 h): 36.1%
- % Radioactive peaks in individual plasma, Patient 08, 1 h ([2]; Patient 08, 1 h): 92.1%
- % Radioactive peaks in individual plasma, Patient 08, 8 h ([2]; Patient 08, 8 h): 68.2%
- % Radioactive peaks in individual plasma, Patient 08, 24 h ([2]; Patient 08, 24 h): 38.5%
- % Radioactive peaks in individual plasma, Patient 09, 1 h ([2]; Patient 09, 1 h): 84.6%
- % Radioactive peaks in individual plasma, Patient 09, 8 h ([2]; Patient 09, 8 h): 82.1%
- % Radioactive peaks in individual plasma, Patient 09, 24 h ([2]; Patient 09, 24 h): 56.5%
- % Radioactive peaks in individual plasma, Mean ± SD, 1 h ([2]; Patients 03, 08, 09, 1 h): 83.9 ± 8.57%
- % Radioactive peaks in individual plasma, Mean ± SD, 8 h ([2]; Patients 03, 08, 09, 8 h): 72.3 ± 8.49%
- % Radioactive peaks in individual plasma, Mean ± SD, 24 h ([2]; Patients 03, 08, 09, 24 h): 43.7 ± 11.1%
- AUC0-24h, Hamilton (AUC0-24h) pooled plasma ([2]; concentration in 0-24-h pooled sample × 24 h): 8040 ng Eq h/mL
- concentration at 1 h ([2]; human, plasma, oral, 600 mg, single pooled sample from all six patients, 1 h, read-out: Mean concentration, time point pooled plasma, 1 h): 317 ng/mL
- concentration at 4 h ([2]; human, plasma, oral, 600 mg, single pooled sample from all six patients, 4 h, read-out: Mean concentration, time point pooled plasma, 4 h): 590 ng/mL
- concentration at 8 h ([2]; human, plasma, oral, 600 mg, single pooled sample from all six patients, 8 h, read-out: Mean concentration, time point pooled plasma, 8 h): 545 ng/mL
- concentration at 24 h ([2]; human, plasma, oral, 600 mg, single pooled sample from all six patients, 24 h, read-out: Mean concentration, time point pooled plasma, 24 h): 151 ng/mL
- Mean AUC0-24h, time point pooled plasma ([2]; trapezoidal method from 1, 4, 8, 24 h pools): 9360 ng Eq h/mL
- % of dose in pooled fecal homogenate, Patient 01 ([3]; Patient 01): 50.6 % dose
- % of dose in pooled fecal homogenate, Patient 05 ([3]; Patient 05): 55.8 % dose
- % of dose in pooled fecal homogenate, Patient 06 ([3]; Patient 06): 70.1 % dose
- % of dose in pooled fecal homogenate, Patient 08 ([3]; Patient 08): 68.2 % dose
- % of dose in pooled fecal homogenate, Patient 09 ([3]; Patient 09): 71.8 % dose
- % Peak (of TRA) in feces ([3]; pooled fecal homogenate covering >90% of fecal excretion, N = 6, mean ± SD): 94.9 ± 4.95%
- % Dose in feces ([3]; N = 6, mean ± SD): 63.9 ± 8.60%
- % Dose in feces ([3]; N = 6, mean ± SD, listed as rucaparib): 63.9% and ≈ 64%

Reference: PMC7211193, “Evaluation of absorption, distribution, metabolism, and excretion of [^14C]-rucaparib, a poly(ADP-ribose) polymerase inhibitor, in patients with advanced solid tumors” (Investigational New Drugs, 2019)
